Results from US7514094B2, “Pesticidal composition” (Ishihara Sangyo Kaisha, Ltd., priority 2000, dated 2009).

Tests used:
Assay type in all cases: in vivo
[1] = test system: Thrips palmi; assay: Insecticidal test (1) of Thrips palmi on potted eggplant, spray; conditions: Compound No. 1 0 ppm, 3 days after treatment
Protocol: Insecticidal test (1) of Thrips palmi
An agrochemical liquid diluted to a predetermined concentration was applied by a spray gun to a 10 to 12-foliate eggplant having Thrips palmi parasitic thereon in a pot so as to make the eggplant fully wet with the agrochemical liquid and the pot was placed in a greenhouse. The numbers of the parasitic insects were counted before treatment and three days after the treatment, and a Percent Control was calculated in accordance with the following formula and the results are shown in the following Table 1. Percent Control=100−((Ta×Cb)/(Tb×Ca)×100) • Ta: Number of insects per treated plants after treatment • Tb: Number of insects per treated plants before treatment • Ca: Number of insects per untreated plants after treatment • Cb: Number of insects per untreated plants before treatment
Also, a theoretical value of the Percent Control was calculated in accordance with the following Colby formula.
When value of the Percent Control is higher than the theoretical value (%) (in accordance with the Colby formula), it is considered that the pesticidal composition of the present invention achieves a synergistic pesticidal effect. The theoretical values of the Percent Control calculated in accordance with the Colby formula are shown in parentheses in the following Table 1. […]

[2] = test system: Western Flower Thrips Frankliniella occidentalis; assay: Insecticidal test of Western Flower Thrips on potted eggplant, spray; conditions: 48 h
From the text: Insecticidal test of Western Flower Thrips Frankliniella occidentalis
An agrochemical liquid diluted to a predetermined concentration was applied by a spray gun to a 10 to 12 foliate eggplant having Western Flower Thrips Frankliniella occidentalis parasitic thereon in a pot so as to make the eggplant fully wet with the agrochemical liquid, and the pot was placed in a greenhouse. The numbers of the parasitic insects were counted before treatment and 2 days after the treatment, and a Percent Control was calculated in the same manner as in Test Example 1.
Also, a theoretical value of the Percent Control was calculated in accordance with the Colby formula in the same manner as in Test Example 1 and the results are shown in parenthesis in the following Table 3.

[3] = test system: Thrips palmi; assay: Insecticidal test (2) of Thrips palmi on potted eggplant, spray; conditions: Compound No. 1 0 ppm, 7 days after treatment
Protocol: Insecticidal test on (2) of Thrips palmi
An agrochemical liquid diluted to a predetermined concentration was applied by a spray gun to a 10 to 12 folite eggplant having Thrips palmi parasitic thereon in a pot so as to make the eggplant fully wet with the agrochemical liquid and the pot was placed in a greenhouse.
The numbers of the parasitic insects were counted […] before treatment and 7 days after the treatment, and a Percent Control was calculated in the same manner as in Test Example 1, and the results are shown in the following Table 2.
Also, a theoretical mortality value (%) was calculated in accordance with the following Colby formula. When value of the Percent Control is higher than the theoretical value of the Percent Control (in accordance with the Colby formula), it is considered that the pesticidal composition of the present invention achieves a synergistic pesticidal effect. The theoretical values of the Percent Control calculated in accordance with the Colby formula are shown in parentheses in the following Table 2. Theoretical value of the Percent Control=100−(X×Y)/100 • X: 100−(Percent Control in case of treating with Compound No. 1 only) • Y: 100−(Percent Control in case of treating with Chlorfluazuron only)

[4] = test system: Thrips palmi; assay: Insecticidal test of Thrips palmi (test in a vinyl house); conditions: 288 h
Protocol: Insecticidal test of Thrips palmi (test in a vinyl house)
An agrochemical liquid diluted to a predetermined concentration was applied by a shoulder sprayer on a 6 to 8 foliate eggplant having Thrips palmi parasitic thereon in an amount of 100 l per 10 are. The numbers of the parasitic insects were counted before treatment and 12 days after the treatment, and a Percent Control was calculated in the same manner as in Test Example 1, and the results are shown in the following Table 4.
Also, a theoretical value of the Percent Control […] calculated in accordance with the Colby formula in the same manner as in Test Example 2 are shown in parenthesis in the following Table 4.

SMILES | Percent Control ([1]; Flufenoxuron 12.5 ppm) | Percent Control ([1]; Flufenoxuron 25 ppm) | mortality at 25 ppm [2] | Percent Control ([3]; Chlorfluazuron 12.5 ppm) | Percent Control ([3]; Chlorfluazuron 25 ppm) | mortality at 25 ppm [4]
O=C(NC(=O)c1c(F)cccc1F)Nc1ccc(Oc2ccc(C(F)(F)F)cc2Cl)cc1F [Flufenoxuron (E-4), Flufenoxuron] | 70% | 67% | 31% | – | – | –
O=C(NC(=O)c1c(F)cccc1F)Nc1cc(Cl)c(Oc2ncc(C(F)(F)F)cc2Cl)c(Cl)c1 [Chlorfluazuron (E-2), Chlorfluazuron] | – | – | – | 55% | 52% | 58%
